Patent US20170298406A1, “SALT OF PHENYLGLYCINE METHYL ESTER” (DSM Sinochem Pharmaceuticals Netherlands B.V., priority 2014, published 2017)
Where a name gives a salt, the structure may show the parent alone.

Assay: Solubility of (PGMH)2SO4 in water as a function of temperature (HPLC of filtered supernatant)
Type: physicochemical
Conditions: filtrate by HPLC
Text: In the preparation of (PGMH)2SO4 as described in Example 2 separation of the organic phase at pH=4.2 is done while (PGMH)2SO4 is supersaturated. At some point in time, crystallization may start before the organic layer is separated from the aqueous phase. In order to design a process that will avoid crystallization of (PGMH)2SO4 in the presence of organic solvent, and controlled crystallization after separation of the organic phase, solubility of (PGMH)2SO4 as a function of temperature was investigated. The hemi sulfuric acid salt of D-phenylglycine methyl ester (1 g), obtained as described in Example 2 was mixed with water (2 g) at 20° C. and the solid material dissolved. Additional hemi sulfuric acid salt of D-phenylglycine methyl ester (1 g) was added and the mixture was agitated at 20° C. for 25 minutes. Not all solid was dissolved. An aliquot of approximately 0.5 mL of supernatant was filtered, and in the filtrate the concentration of hemi sulfuric acid salt of D-phenylglycine methyl ester was determined by HPLC. The rest of the mixture was stirred at 3° C. Water (2 mL) was added to allow mixing. […] An aliquot of approximately 0.5 mL of supernatant was filtered and in the filtrate the concentration of hemi sulfuric acid salt of D-phenylglycine methyl ester was determined by HPLC.

Solubility in water: hemi sulfuric acid salt of D-phenylglycine methyl ester (g)/kg of solution (T 3 °C, agitated 30 minutes): 268 g/kg of solution
Solubility in water: hemi sulfuric acid salt of D-phenylglycine methyl ester (g)/kg of solution (T 20 °C, agitated 25 minutes): 478 g/kg of solution
SMILES: COC(=O)[C@H](N)c1ccccc1 [hemi sulfuric acid salt of D-phenylglycine methyl ester]
